These results are taken from ChEMBL document CHEMBL1121689, “A dopamine receptor model and its application in the design of a new class of rigid pyrrolo[2,3-g]isoquinoline antipsychotics” (1981).

A value given as a limit tells only on which side of the number the result lay.

Assay [1] relates to Rattus norvegicus. As to the kind of experiment: Dose required for producing 50% block of avoidance responding in rats after peroral administration. Type of assay: functional.
Assay [2] relates to Rattus norvegicus. Put plainly: Dose required for producing 20% block of escape responding in rats after peroral administration. Type of assay: functional.

`CCc1c(C)[nH]c2c1C(=O)[C@@H]1CN(C)CC[C@H]1C2.Cl` had an ABD50 with Rattus norvegicus [1] of more than 6 mg/kg.

With `CCc1c(C)[nH]c2c1C(=O)C(CN1CCOCC1)CC2` (centres undefined) [MOLINDONE], the EBD20 with Rattus norvegicus [2] stood at 17.1 mg/kg. In addition, in the assay on Rattus norvegicus [1], the ABD50 is 3.6 mg/kg.

`CCc1c(C)[nH]c2c1C(=O)[C@H]1CN(C)CC[C@@H]1C2.Cl` came in with an EBD20 in the assay with Rattus norvegicus [2] of 3.6 mg/kg. This compound also registered an ABD50 in the assay with Rattus norvegicus [1] of 0.49 mg/kg.

In the assay on Rattus norvegicus [2], `O=C(CCCN1CCC(O)(c2ccc(Cl)cc2)CC1)c1ccc(F)cc1` [HALOPERIDOL] registered an EBD20 of 2.7 mg/kg. Moreover, the ABD50 with Rattus norvegicus [1] came to 0.35 mg/kg.

Turning to `CCc1c(C)[nH]c2c1C(=O)C1CN(C)CCC1C2.Cl` (racemic), the EBD20 in the assay with Rattus norvegicus [2] came to 9.8 mg/kg. The compound also registered an ABD50 in the assay with Rattus norvegicus [1] of 0.72 mg/kg.
